Assay results published in US8674070B2, “Cancer-targeting peptides and uses thereof in cancer therapy” (Academia Sinica, priority 2009, dated 2014).

Experiments:
[1] = tested on: cancer cells in breast cancer tissue samples; assay: Peptide competition assay on cancer tissue samples; type: binding, human; details: peptide 100 ng/ml; PC90 10^9 pfu
Method: The cancer targeting activity of PC90 was confirmed by a peptide competition assay, in which the cancer tissue samples were incubated with (1) the synthetic peptide (100 ng/ml) SMDPFLFQLLQL (SEQ ID NO:5) (SP90) and PC90 (10^9 pfu) or (2) the control peptide (100 ng/ml) RLLDTNRPLLPY (SEQ ID NO:6; see Lee et al., cancer Res. 64:8002-8008, 2004) and PC90. SP90 and the control peptide were synthesized and purified by reverse-phase high-performance liquid chromatography. The resultant peptides, having a purity of greater than 95%, were conjugated, if necessary, with FITC or biotin at their N-termini.

breast tumor xenografts = assay: In vivo peptide competition: co-injection with PC90 in mice bearing breast tumor xenografts; details: 100 μg peptide co-injected with PC90
Method: SP90 was co-administered to test its ability of blocking PC90 from binding to the tumor tissues. Briefly, 100 μg SP90 or the control peptides described above were co-injected with PC90 to mice bearing breast tumor xenografts. The normal organs and tumor tissues were removed and fixed in Bouin's solution (Sigma, Mo., USA). After fixation, the samples were embedded in paraffin blocks, sliced to sections, and the sections were deparaffinized, rehydrated, and subjected to immunostaining using the mouse anti-M13 mAb described in Example 1 above.

[2] = tested on: BT483 breast cancer xenografts; assay: Treatment of breast tumor xenografts: tumor volume; type: in vivo, SCID mice; details: doxorubicin 3 mg/kg once a week for three weeks, tail vein; n=6, P<0.005
Method: SCID mice (4-6 weeks of age) were injected s.c. in the dorsolateral flank with 1×10^7 BT483 cells to induce breast cancer xenografts. The tumor volumes in these mice were determined by the formula: length×[…]×0.52. The mice bearing xenograft tumors at a size of around 50-100 mm^3 were randomly assigned to four groups, each of which was treated as follows via administration through their tail veins.
Group 1: treated with SP90 conjugated doxorubicin-containing liposomes (SP90-LD) at a doxorubicin dosage of 3 mg/kg, once a week for three weeks,
Group 2: treated with doxorubicin-containing liposomes (LD), at a doxorubicin dosage of 3 mg/kg, once a week for three weeks,
Group 3: treated with free doxorubicin (FD), at a doxorubicin dosage of 3 mg/kg, once a week for three weeks, and
Group 4: treated with saline once a week for three weeks (blank control).
Mouse body weights and tumor sizes were measured twice a week. Tumor volumes were calculated following the formula described above.

[3] = Total white blood cell count in treated tumor-bearing mice; type: in vivo, SCID mice; details: three days after the last treatment (day 17); doxorubicin 3 mg/kg weekly x3
Method: The total white blood cell (WBC) numbers in the treated mice were determined three days after the last treatment (i.e., on day 17) as follows. […] The blood was then mixed with a red blood cell lysis buffer containing 2% acetic acid and 1% of Gentian violet (Sigma-Aldrich, Saint Louis, Mo., USA) and incubated at room temperature. The number of the WBCs was countered using a hemacytometer.

tumor blood vessels = assay: Tumor blood vessel staining with tomato lectin; type: in vivo, SCID mice; details: doxorubicin 3 mg/kg weekly x3; FIG. 3 Panel B
Source text: Tumor tissues were removed from the treated mice, fixed with 4% paraformaldehyde and embedded with paraffin. Blood vessels in the tumor tissues were detected by staining with Lycopersicon esculentum (tomato) lectin conjugated to biotin (Vector, CA, USA) and then with streptavidin-conjugated rhodamine (Pierce, Ill., USA).

[4] = Doxorubicin localization in tumor tissues of treated mice; type: in vivo, SCID mice; details: 2 mg/kg tail vein
Source text: At selected time points, three mice in each group were anaesthetized and sacrificed.

Row | Molecule | competition against PC90 for binding to the cancer cells in the tissue samples [1] | inhibition of PC90 binding to the tumor tissues (breast tumor xenografts) | average tumor volume, fold larger than that of the Group 2 mice [2] [fold] | total number of the WBCs [3] | number of tumor vessels / tumor vascular density (lectin staining) (tumor blood vessels) | areas of tumor tissue in which doxorubicin was detected (autofluorescence) [4]
1 | SMDPFLFQLLQL [SP90] | competed against PC90 for binding to the cancer cells | 97% |  |  |  | 
2 | COc1cccc2c1C(=O)c1c(O)c3c(c(O)c1C2=O)C[C@@](O)(C(=O)CO)C[C@@H]3O[C@H]1C[C@H](N)[C@H](O)[C@H](C)O1 [FD, doxorubicin] |  |  | 8.3 | 5.6×10^3 /mm^3 | high tumor vascular density | detected only in limited areas
3 | RLLDTNRPLLPY [control peptide] | not | did not exhibit any inhibitory activity |  |  |  | 
